Experimental data taken from ChEMBL document CHEMBL1146314, “Methotrexate gamma-hydroxamate derivatives as potential dual target antitumor drugs” (Bioorg Med Chem, 2007).

Assays:
[1] = target: T1, Matrilysin (Homo sapiens) (UniProt P09237); test: Ratio of IC50 of drug to CGS 27023A for human recombinant MMP7
T1 sequence (whole entry): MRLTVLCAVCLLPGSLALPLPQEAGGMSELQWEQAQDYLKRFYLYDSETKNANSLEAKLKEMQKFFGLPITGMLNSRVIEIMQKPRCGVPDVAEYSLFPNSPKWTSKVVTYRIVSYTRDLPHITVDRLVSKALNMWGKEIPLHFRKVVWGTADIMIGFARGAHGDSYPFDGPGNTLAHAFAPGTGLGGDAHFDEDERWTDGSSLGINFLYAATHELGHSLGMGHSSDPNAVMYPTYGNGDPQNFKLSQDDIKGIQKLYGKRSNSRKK

[2] = target: T2, Dihydrofolate reductase (Homo sapiens, UniProt P00374)
T2 sequence (P00374 whole entry): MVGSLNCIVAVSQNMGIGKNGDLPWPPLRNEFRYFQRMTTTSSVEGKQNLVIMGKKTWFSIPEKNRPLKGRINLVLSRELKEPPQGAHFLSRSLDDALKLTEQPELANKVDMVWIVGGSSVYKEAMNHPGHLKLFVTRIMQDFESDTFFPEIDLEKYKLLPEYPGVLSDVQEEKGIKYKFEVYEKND
Description: Inhibition of DHFR using folic acid substrate

[3] = tested on: A549; test: Antiproliferative activity against A549 cells after 72 hrs in folate depleted media; format: functional, cell-based; conditions: Homo sapiens, A549, 72 h
[4] = Antiproliferative activity against Tsu-Pr1 cells after 72 hrs by MTT assay; format: functional, cell-based; conditions: Homo sapiens, TSU-Pr1, 72 h
[5] = target: T3, Matrix metalloproteinase-9 (Homo sapiens, UniProt P14780); test: Ratio of IC50 of drug to CGS 27023A for human recombinant MMP9
T3 sequence (P14780 whole entry): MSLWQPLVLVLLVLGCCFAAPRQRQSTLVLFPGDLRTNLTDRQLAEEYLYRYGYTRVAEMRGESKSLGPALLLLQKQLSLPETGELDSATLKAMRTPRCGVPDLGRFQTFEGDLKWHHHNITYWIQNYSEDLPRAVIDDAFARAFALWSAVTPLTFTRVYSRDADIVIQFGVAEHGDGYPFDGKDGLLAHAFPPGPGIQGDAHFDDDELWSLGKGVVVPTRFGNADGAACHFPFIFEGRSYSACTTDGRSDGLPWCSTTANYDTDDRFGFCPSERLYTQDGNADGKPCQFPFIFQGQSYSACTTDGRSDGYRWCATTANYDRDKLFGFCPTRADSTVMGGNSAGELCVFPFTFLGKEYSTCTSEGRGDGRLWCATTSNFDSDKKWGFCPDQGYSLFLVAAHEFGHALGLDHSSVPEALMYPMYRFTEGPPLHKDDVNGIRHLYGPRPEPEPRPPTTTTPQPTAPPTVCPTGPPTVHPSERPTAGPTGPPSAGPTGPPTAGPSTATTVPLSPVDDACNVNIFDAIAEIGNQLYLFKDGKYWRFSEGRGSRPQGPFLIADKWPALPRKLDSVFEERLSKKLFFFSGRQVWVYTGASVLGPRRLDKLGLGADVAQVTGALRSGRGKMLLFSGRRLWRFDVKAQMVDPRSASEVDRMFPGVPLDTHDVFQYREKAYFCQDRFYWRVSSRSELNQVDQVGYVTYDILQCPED

[6] = tested on: A549; test: Antiproliferative activity against A549 cells after 72 hrs by MTT assay; format: functional, cell-based; conditions: Homo sapiens, A549, 72 h
[7] = Antiproliferative activity against Tsu-Pr1 cells after 72 hrs in folate depleted media; format: functional, cell-based; conditions: Homo sapiens, TSU-Pr1, 72 h
[8] = tested on: PPC-1; test: Antiproliferative activity against PPC1 cells after 72 hrs by MTT assay; format: functional, cell-based; conditions: Homo sapiens, PPC-1, 72 h
[9] = target: T2, Dihydrofolate reductase; remark: listed apart in the source
Description: Inhibition of DHFR using dihydrofolic acid substrate

[10] = target: T4, 72 kDa type IV collagenase (Homo sapiens, UniProt P08253); test: Ratio of IC50 of drug to CGS 27023A for human recombinant MMP2
Target sequence in this assay (P08253 110-660 limits assumed): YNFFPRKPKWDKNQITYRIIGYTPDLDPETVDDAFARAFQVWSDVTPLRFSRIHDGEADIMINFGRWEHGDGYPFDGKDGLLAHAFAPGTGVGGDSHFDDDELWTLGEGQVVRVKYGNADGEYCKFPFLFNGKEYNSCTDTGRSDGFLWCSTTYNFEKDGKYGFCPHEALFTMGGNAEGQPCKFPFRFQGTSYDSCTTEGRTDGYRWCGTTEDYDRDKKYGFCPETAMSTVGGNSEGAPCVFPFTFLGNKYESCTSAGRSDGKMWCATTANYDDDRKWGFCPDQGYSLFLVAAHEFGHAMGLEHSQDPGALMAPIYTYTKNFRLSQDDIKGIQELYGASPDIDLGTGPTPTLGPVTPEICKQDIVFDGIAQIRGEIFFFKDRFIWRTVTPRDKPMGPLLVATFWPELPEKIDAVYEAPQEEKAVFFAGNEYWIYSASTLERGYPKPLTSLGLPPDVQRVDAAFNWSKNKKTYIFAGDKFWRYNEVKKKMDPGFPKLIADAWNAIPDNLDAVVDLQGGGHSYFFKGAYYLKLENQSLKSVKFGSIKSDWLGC

[11] = target: T5, Matrix metalloproteinase-14 (Homo sapiens, UniProt P50281); test: Ratio of IC50 of drug to CGS 27023A for human recombinant MMP14
[12] = target: T6, Matrilysin (Homo sapiens, UniProt P09237); test: Inhibition of human recombinant MMP7
T6 sequence (P09237 whole entry): T1 sequence (whole entry)

[13] = target: T5, Matrix metalloproteinase-14; test: Inhibition of human recombinant MMP14
[14] = target: T4, 72 kDa type IV collagenase; test: Inhibition of human recombinant MMP2
Target sequence in this assay (P08253 whole entry): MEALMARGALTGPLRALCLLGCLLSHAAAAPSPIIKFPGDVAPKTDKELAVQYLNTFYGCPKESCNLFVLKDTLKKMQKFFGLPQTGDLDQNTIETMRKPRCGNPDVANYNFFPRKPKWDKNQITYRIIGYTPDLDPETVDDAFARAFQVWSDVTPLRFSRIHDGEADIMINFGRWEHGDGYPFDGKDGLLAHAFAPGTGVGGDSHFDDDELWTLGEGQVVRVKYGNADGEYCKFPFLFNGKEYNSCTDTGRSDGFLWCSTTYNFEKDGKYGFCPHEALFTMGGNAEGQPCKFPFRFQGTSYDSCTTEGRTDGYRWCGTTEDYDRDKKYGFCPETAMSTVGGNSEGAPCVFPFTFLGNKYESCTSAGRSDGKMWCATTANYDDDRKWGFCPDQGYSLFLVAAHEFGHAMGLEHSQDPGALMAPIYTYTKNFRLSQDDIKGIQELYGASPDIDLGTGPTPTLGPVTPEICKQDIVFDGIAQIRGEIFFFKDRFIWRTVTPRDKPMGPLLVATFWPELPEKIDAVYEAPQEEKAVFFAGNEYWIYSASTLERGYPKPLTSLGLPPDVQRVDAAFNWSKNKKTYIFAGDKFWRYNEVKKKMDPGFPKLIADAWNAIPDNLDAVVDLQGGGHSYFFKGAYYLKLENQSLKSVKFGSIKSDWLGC

[15] = target: T3, Matrix metalloproteinase-9; test: Inhibition of human recombinant MMP9
[16] = tested on: PPC-1; test: Antiproliferative activity against PPC1 cells after 72 hrs in folate depleted media; format: functional, cell-based; conditions: Homo sapiens, PPC-1, 72 h
[17] = target: T5, Matrix metalloproteinase-14; test: Inhibition of human recombinant MMP14 at 100 uM
[18] = target: T4, 72 kDa type IV collagenase; test: Inhibition of human recombinant MMP2 at 100 uM
Target sequence in this assay (P08253 110-660 limits assumed): as the sequence (P08253 110-660 limits assumed) above

[19] = target: T3, Matrix metalloproteinase-9; test: Inhibition of human recombinant MMP9 at 100 uM
[20] = target: T1, Matrilysin (Homo sapiens); test: Inhibition of human recombinant MMP7 at 100 uM

Q: With `CN(Cc1cnc2nc(N)nc(N)c2n1)c1ccc(C(=O)N[C@@H](CCC(=O)N[C@@H](Cc2ccccc2)C(=O)NO)C(=O)O)cc1` as the molecule, how does the Ratio IC50 [1] read?
A: 440

Q: What about the IC50 [2] of the same molecule?
A: 250 nM

Q: What about the IC50 [3] of the same molecule?
A: 500 nM

Q: And the IC50 [4]?
A: 2000 nM

Q: What about the Ratio IC50 [5] of the same molecule?
A: 3000

Q: And the IC50 [6]?
A: 6500 nM

Q: And the IC50 [7]?
A: 120 nM

Q: And the IC50 [8]?
A: 4800 nM

Q: And the IC50 [9]?
A: 170 nM

Q: What about the Ratio IC50 [10] of the same molecule?
A: 2500

Q: What about the Ratio IC50 [11] of the same molecule?
A: 3040

Q: What about the IC50 [12] of the same molecule?
A: 44000 nM

Q: What about the IC50 [13] of the same molecule?
A: 70000 nM

Q: What about the IC50 [14] of the same molecule?
A: 60000 nM

Q: And the IC50 [15]?
A: 15000 nM

Q: And the IC50 [16]?
A: 500 nM

Q: Which results are given for `Nc1nc2ncc(CNc3ccc(C(=O)N[C@@H](CCC(=O)N[C@@H](Cc4ccccc4)C(=O)NO)C(=O)O)cc3)nc2c(=O)[nH]1`?
A: Ratio IC50 [1]: 150; IC50 [4]: 150000 nM; Ratio IC50 [5]: 4400; IC50 [6]: 110000 nM; IC50 [8]: 70000 nM; Ratio IC50 [10]: 2710; Ratio IC50 [11]: 3480; IC50 [12]: 15000 nM; IC50 [13]: 80000 nM; IC50 [14]: 65000 nM; IC50 [15]: 22000 nM

Q: With `CN(Cc1cnc2nc(N)nc(N)c2n1)c1ccc(C(=O)N[C@@H](CCC(=O)NO)C(=O)O)cc1` as the molecule, how does the IC50 [2] read?
A: 170 nM

Q: And the IC50 [3]?
A: 100 nM

Q: What about the IC50 [4] of the same molecule?
A: 2000 nM

Q: What about the inhibition [17] of the same molecule?
A: 48%

Q: And the IC50 [6]?
A: 6000 nM

Q: And the IC50 [7]?
A: 10 nM

Q: And the IC50 [8]?
A: 2000 nM

Q: What about the IC50 [9] of the same molecule?
A: 70 nM

Q: What about the inhibition [18] of the same molecule?
A: 67%

Q: What about the IC50 [12] of the same molecule?
A: 100000 nM

Q: What about the inhibition [19] of the same molecule?
A: 61%

Q: What about the IC50 [16] of the same molecule?
A: 50 nM

Q: With `COc1ccc(S(=O)(=O)N(Cc2cccnc2)[C@@H](C(=O)NO)C(C)C)cc1` [CGS-27023A] as the molecule, how does the IC50 [13] read?
A: 23 nM

Q: For `NC1=NC(=O)C2N=C(CNc3ccc(C(=O)N[C@@H](CCC(=O)N4CCC[C@H]4C(=O)NO)C(=O)O)cc3)C=NC2=N1` (stereo not given in full), which IC50 [4] is on record?
A: 80000 nM

Q: What about the inhibition [20] of the same molecule?
A: 54%

Q: What about the IC50 [6] of the same molecule?
A: 130000 nM

Q: And the IC50 [8]?
A: 120000 nM

Q: And the inhibition [18]?
A: 58%

Q: Which results are given for `Nc1nc2ncc(CNc3ccc(C(=O)N[C@@H](CCC(=O)NO)C(=O)O)cc3)nc2c(=O)[nH]1`?
A: IC50 [4]: 120000 nM; inhibition [20]: 53%; inhibition [17]: 42%; IC50 [6]: 100000 nM; IC50 [8]: 80000 nM; inhibition [18]: 66%; inhibition [19]: 55%

Q: With `CN(Cc1cnc2nc(N)nc(N)c2n1)c1ccc(C(=O)N[C@@H](CCC(=O)O)C(=O)O)cc1` [METHOTREXATE] as the molecule, how does the IC50 [3] read?
A: 20 nM

Q: What about the IC50 [4] of the same molecule?
A: 100 nM

Q: And the IC50 [6]?
A: 100 nM

Q: And the IC50 [7]?
A: 8 nM

Q: And the IC50 [8]?
A: 100 nM

Q: And the IC50 [16]?
A: 10 nM

Q: With `CN(Cc1cnc2nc(N)nc(N)c2n1)c1ccc(C(=O)N[C@@H](CCC(=O)N2CCC[C@H]2C(=O)NO)C(=O)O)cc1` as the molecule, how does the IC50 [2] read?
A: 130 nM

Q: What about the IC50 [3] of the same molecule?
A: 500 nM

Q: What about the IC50 [4] of the same molecule?
A: 2300 nM

Q: What about the inhibition [20] of the same molecule?
A: 43%

Q: And the inhibition [17]?
A: 47%

Q: What about the IC50 [6] of the same molecule?
A: 7500 nM

Q: And the IC50 [7]?
A: 100 nM

Q: And the IC50 [8]?
A: 1800 nM

Q: What about the IC50 [9] of the same molecule?
A: 120 nM

Q: What about the inhibition [18] of the same molecule?
A: 56%

Q: And the inhibition [19]?
A: 61%

Q: And the IC50 [16]?
A: 200 nM
